pIC50: −log10 of the molar value. Residues, ends and D or L forms follow the SMILES beside them.

This experiment addresses Endothelin receptor type B (Sus scrofa). Description: Binding activity against Endothelin B receptor 0f Porcine cerebellum membranes.
Regarding `CC[C@H](C)[C@H]1NC(=O)[C@H](C)NC(=O)[C@@H](CCC(=O)O)NC(=O)[C@@H](Cc2c[nH]c3ccccc23)NC(=O)[C@H](CC(C)C)NC1=O` (HELM PEPTIDE1{A.[CC[C@H](C)[C@@H](N[*:1])C(=O)[*:2]].L.[dW].[dE]}$PEPTIDE1,PEPTIDE1,1:R1-5:R2$$$V2.0), the pIC50 – broadly, the IC50 on a negative log10 scale, so that one unit is a factor of ten – was less than 4.00.
Compound `CC(C)[C@H]1NC(=O)[C@H](C)NC(=O)[C@@H](CC(=O)O)NC(=O)[C@@H](Cc2c[nH]c3ccccc23)NC(=O)[C@@H]2CCCN2C1=O` (HELM PEPTIDE1{A.[dV].P.[dW].[dD]}$PEPTIDE1,PEPTIDE1,1:R1-5:R2$$$V2.0) had a pIC50 of less than 4.00.
The figure for `CC(C)C[C@@H]1NC(=O)[C@@H](C(C)C)NC(=O)CN(C)C(=O)[C@@H](CC(=O)O)NC(=O)[C@@H](Cc2c[nH]c3ccccc23)NC1=O` (HELM PEPTIDE1{L.[dW].[dD].[Sar].[dV]}$PEPTIDE1,PEPTIDE1,1:R1-5:R2$$$V2.0) is 4.52; for `CC(C)C[C@@H]1NC(=O)[C@@H](C(C)C)NC(=O)[C@H](C)N(C)C(=O)[C@@H](CC(=O)O)NC(=O)[C@@H](Cc2c[nH]c3ccccc23)NC1=O` (HELM PEPTIDE1{L.[dW].[dD].[meA].[dV]}$PEPTIDE1,PEPTIDE1,1:R1-5:R2$$$V2.0) it is 4.33; for `CC(C)C[C@@H]1NC(=O)[C@@H](C(C)C)NC(=O)[C@@H]2CCCN2C(=O)[C@@H](CCC(=O)O)NC(=O)[C@@H](Cc2c[nH]c3ccccc23)NC1=O` (HELM PEPTIDE1{L.[dW].[dE].P.[dV]}$PEPTIDE1,PEPTIDE1,1:R1-5:R2$$$V2.0) it is less than 4.00.

Values taken from BindingDB's records for doi:10.1021/jm00089a028 (1992).
